The results in this text go back to patent US20100092560A1, “REDUCED COENZYME Q10-CONTAINING PARTICULATE COMPOSITION AND METHOD FOR PRODUCING THE SAME” (KANEKA CORPORATION, priority 2007, published 2010).

A short description of this data set: Preservation test: residual ratio of reduced coenzyme Q10 (oxidative stability, HPLC). It counts as physicochemical. Particulars: powder preserved for 30 days at 40° C. under shading conditions. As for the experimental part: The purity of reduced coenzyme Q10, the weight ratio (%) of oxidized coenzyme Q10 and reduced coenzyme Q10 and the like were determined by the following HPLC analysis. The HPLC analysis conditions are described below.
column: SYMMETRY C18 (manufactured by Waters) 250 mm (length) 4.6 mm (inner diameter), mobile phase; C2H5OH/CH3OH=4/3(v/v), detection wavelength; 210 nm, flow rate; 1.0 ml/min, retention time of reduced coenzyme Q10; 9.1 min, retention time of oxidized coenzyme Q10; 13.3 min.

Take `COc1c(O)c(C)c(C/C=C(\C)CC/C=C(\C)CC/C=C(\C)CC/C=C(\C)CC/C=C(\C)CC/C=C(\C)CC/C=C(\C)CC/C=C(\C)CC/C=C(\C)CCC=C(C)C)c(O)c1OC` [reduced coenzyme Q10 powder, reduced coenzyme Q10]: the “residual ratio of reduced coenzyme Q10” value is 28%.
